This is an account of results in US20090087389A1, “DEHYDROEPIAN[…] DIHYDRATE INHALATION COMPOSITIONS AND METHODS” ([…] PHARMACEUTICALS, LLC., priority 2002, published 2009).

The conditions of series [1]: solid state; cited from earlier work.
Series [2] is described as follows: Stability at 50° C. with and without lactose (DHEA formation by HPLC). The settings on record: 1 week at 50° C. Format: physicochemical. The text has this:
These conditions were used to stress the formulation in order to predict its long-term stability results.
The primary degradant is dehydroepiandrosterone or DHEA. […] The materials on accelerated storage become more cohesive with time as evidenced by clumping during sample weighing for chemical analysis. […] This is a considerable disadvantage since lactose is the most commonly used inhalation excipient for dry powder formulations. Continuing with the virtually anhydrous form would mean limiting formulations to neat powder or undertaking more comprehensive safety studies to use a novel excipient.

A short description of series [3]: Nebulizer studies (Pari ProNeb Ultra / LC Plus, AS-6 impactor, by-pass collector). The conditions noted are these: 0.12% NaCl; no precipitate during nebulization.
Experimental: Nebulizer Studies. […] The nebulizer is filled with 5 mL of solution and nebulization is continued until the output became visually insignificant (4½ to 5 min.). Nebulizer solutions are tested using a California Instruments AS-6 6-stage impactor with a USP throat. The impactor is run at 30 L/min for 8 seconds to collect a sample following one minute of nebulization time. At all other times during the experiment, the aerosol is drawn through the by-pass collector at approximately 33 L/min. The collection apparatus, nebulizer, and impactor are rinsed with mobile phase and assayed by HPLC. […] This volume is selected as the practical upper limit for use in a clinical study.

Regarding `C[C@]12CC[C@H](OS(=O)(=O)[O-])CC1=CC[C@@H]1[C@@H]2CC[C@]2(C)C(=O)CC[C@@H]12.[Na+]` [Anhydrous DHEA-S], the hygroscopicity result in series [1] is recorded as “very hygroscopic”.
Turning to `CC12CCC3C(CC=C4CC(OS(=O)(=O)[O-])CCC43C)C1CCC2=O.[Na+]` (stereo not drawn) [DHEA-S dihydrate, dehydroepiandrosterone sodium sulfate dihydrate], the color after storage result in series [2] is recorded as “no change in color”.
On to `C[C@]12CC[C@H](OS(=O)(=O)[O-])CC1=CC[C@@H]1[C@@H]2CC[C@]2(C)C(=O)CC[C@@H]12.[Na+]` [DHEA-S, sodium dehydroepiandrostenone sulfate], for which, in series [3], the “highest solution concentration for a proof of concept clinical trial formulation” value is recorded as “approximately 7.5 mg/mL”.
